Data: PubChem BioAssay (NCI)
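Results reflect a 48-hour exposure of cells in 96-well plates to compound at five concentrations. Definition used: TGI = concentration required for complete inhibition of growth.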

Assays:
Test in all cases: NCI anticancer screen, dose series, 48 h
786-0 renal = tested on: 786-0 renal
A498 renal = tested on: A498 renal
CCRF-CEM leukemia = tested on: CCRF-CEM leukemia
EKVX NSCLC = tested on: EKVX NSCLC
HCT-15 colon = tested on: HCT-15 colon
HOP-62 NSCLC = tested on: HOP-62 NSCLC
KM12 colon = tested on: KM12 colon
MDA-MB-231 breast = tested on: MDA-MB-231 breast
NCI-H23 lung = tested on: NCI-H23 lung
NCI/ADR-RES ovarian = tested on: NCI/ADR-RES ovarian
RXF 393 renal = tested on: RXF 393 renal
SF-268 CNS = tested on: SF-268 CNS
SF-539 CNS = tested on: SF-539 CNS
SNB-75 CNS = tested on: SNB-75 CNS
SR leukemia = tested on: SR leukemia
SW-620 colon = tested on: SW-620 colon
T-47D breast = tested on: T-47D breast
UACC-62 melanoma = tested on: UACC-62 melanoma
HOP-92 NSCLC = tested on: HOP-92 NSCLC
SNB-19 CNS = tested on: SNB-19 CNS

SMILES	TGI (786-0 renal) [µM]	TGI (A498 renal) [µM]	TGI (CCRF-CEM leukemia) [µM]	TGI (EKVX NSCLC) [µM]	TGI (HCT-15 colon) [µM]	TGI (HOP-62 NSCLC) [µM]	TGI (KM12 colon) [µM]	TGI (MDA-MB-231 breast) [µM]	TGI (NCI-H23 lung) [µM]	TGI (NCI/ADR-RES ovarian) [µM]	TGI (RXF 393 renal) [µM]	TGI (SF-268 CNS) [µM]	TGI (SF-539 CNS) [µM]	TGI (SNB-75 CNS) [µM]	TGI (SR leukemia) [µM]	TGI (SW-620 colon) [µM]	TGI (T-47D breast) [µM]	TGI (UACC-62 melanoma) [µM]	TGI (HOP-92 NSCLC) [µM]	TGI (SNB-19 CNS) [µM]
CCOP(=O)(OCC)/C(=C\n1ccc(=O)[nH]c1=S)C(=O)OC	> 100	> 100	> 100	> 100	> 100	> 100	> 100	> 100	> 100	> 100	> 100	> 100	> 100	> 100	> 100	> 100	> 100	> 100		
COc1ccc(/C(=N/OCCCC(=O)O)c2cccs2)cc1	> 100	> 100	> 100	> 100	> 100	> 100	> 100	> 100	> 100	> 100	> 100	> 100	> 100	> 100		> 100	> 100	> 100	> 100	> 100
C[C@H](CCC(=O)O)[C@H]1CC[C@H]2[C@@H]3[C@H](O)[C@H](O)[C@@H]4C[C@H](O)CC[C@]4(C)[C@H]3CC[C@]12C	> 100	> 100	> 100	> 100	> 100	> 100	> 100	> 100	> 100	> 100	> 100	> 100	> 100	> 100		> 100	> 100	> 100	> 100	> 100
COc1ccc2nc(N/N=C/c3ccc(C)s3)cc(C)c2c1	42.6		> 100	87.9	32.4	39.6	39.8	43.9	28.6	66.4	41.6	54.7	34.8	46.4	61	> 100	46.4	35.4	43.2	34.8
C=CC(=C)CCC(Br)C(C)(C)Br (configuration not stated)	> 100		50.8	> 100	> 100	> 100	> 100	> 100	> 100	> 100	> 100	> 100	> 100	> 100	> 100	> 100	> 100	> 100	> 100	> 100
Cn1c2ccccc2c2c3c(c4c5ccccc5n(C)c4c21)C(=O)N(Cc1ccccc1)C3=O	> 100	> 100	> 100	> 100	> 100	> 100	> 100	> 100	> 100	> 100			> 100	> 100	51.6	> 100	> 100	> 100	> 100	> 100
